# Test results: paper PMC5556019, “Targeting Apolipoprotein E/Amyloid β Binding by Peptoid CPO_Aβ17-21 P Ameliorates Alzheimer’s Disease Related Pathology and Cognitive Decline” (Scientific Reports, 2017)
# Numbered stars: 1 amine (or outer) side, 2 acyl side, 3 side chain; on linkers, the order of the positions; unused ones are H or OH. Bridge positions count the residues as written; N and C are the ends. Square brackets hold non-standard residues; d marks the D form. Peptide text beside a SMILES is read from it. ξ: configuration not given here. N(CH2CH2CO)Gly = O=C(CN(CCC(=O)[*:3])[*:1])[*:2]; Nphe = O=C(O)CNCc1ccccc1; Nleu = CC(C)CNCC(=O)O; ξP = O=C(O)C1CCCN1; Sar = CNCC(=O)O
# Key:
# [1] = tested on: SK-N-SH human neuroblastoma cells; assay: Toxicity rescue: apoE4-enhanced cytotoxicity of oligomeric Aβ42; format: cell-based; conditions: Aβ42 10 µM, apoE4 1 µM pre-incubated 6 hrs with inhibitor (Aβ12-28 P 4 µM; CPO_Aβ17-21 P 1 or 4 µM), three days
# Description: Oligomeric Aβ42 was prepared as previously published. To prepare 100 µM oligomeric Aβ42 stock solution, 0.45 mg HFIP pretreated Aβ42 peptide was dissolved into 20 µl fresh dry dimethyl sulfoxide (DMSO) to form 5 mM Aβ42 DMSO solution; then 980 µl ice cold phenol-free Ham’s F-12 cell culture medium (with 146 mg/L L-Glutamine) was added to the Aβ42 DMSO solution followed by incubation at 4 °C for 24 hrs. CPO_ Aβ17–21 P or Aβ12-28 P was pre-incubated with apoE4 in DMEM medium containing 1% N-2 supplement for 6 hrs at 37 °C then mixed with freshly prepared oligomeric Aβ42 and added to SK-N-SH cells. For comparison, cells were incubated with Aβ42 alone and Aβ42 + apoE4, apoE alone, Aβ42 + CPO_Aβ17-21 P and Aβ42 + Aβ12-28 P as additional controls. The final concentration of peptides or peptoids was as follows: Aβ42 10 µM, apoE4 1 µM, Aβ12-28 P 4 µM and CPO_Aβ17-21 P 1 µM or 4 µM. Cells were under different treatments for three days and the cell viability was assessed as described above.
# apoE4/Aβ42 binding = molecular target: T1, apoE4/Aβ42 binding (Homo sapiens, UniProt P02649, C130R); assay: Surface plasmon resonance assay of apoE4/Aβ42 binding inhibition
# T1 construct: purchased BioVision (Milpitas, CA)
# T1 sequence (P02649 19-317 C130R): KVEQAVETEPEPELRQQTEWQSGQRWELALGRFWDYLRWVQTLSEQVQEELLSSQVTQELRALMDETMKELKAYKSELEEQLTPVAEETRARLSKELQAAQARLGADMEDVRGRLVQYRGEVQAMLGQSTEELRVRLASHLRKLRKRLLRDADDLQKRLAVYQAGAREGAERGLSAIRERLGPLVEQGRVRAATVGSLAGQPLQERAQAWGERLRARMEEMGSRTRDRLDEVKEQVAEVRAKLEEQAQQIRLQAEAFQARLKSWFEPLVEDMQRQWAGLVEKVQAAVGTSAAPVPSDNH
# Description: Experiments were performed using a Reichert SR7000DC refractometer system (Reichert, New York) equipped with a CM5 sensor chip. Acetate buffer was used for immobilization of the peptide Aβ42 (ligand). […] Importantly, Aβ42 species are considered critical for seeding of amyloid deposits, [32]. CM-dextran on a CM5 gold sensor chip was activated by injecting a solution of 10 mg/mL N-Hydroxysuccinimide (NHS) and 40 mg/mL 1-Ethyl-3-(3-dimethylaminopropyl) carbodiimide (EDC) over the sensor chip surface for 7 min at a flow rate of 20 µL/min. Then the ligand, 50 µg/mL HFIP treated synthetic peptide Aβ42 in 10 mM sodium acetate, pH 4.5, was immobilized by injection over the surface for 20 min. The unreacted sites on the sensor chip surface were blocked by injection of 1 M ethanolamine, pH 8.5 for 10 min. […] After each binding cycle the surface was regenerated by a short, fast injection of 10 mM hydrochloric acid. To verify results analytes containing lipidated human apoE4 molecules or lipidated human apoE3 molecules incubated with peptoid inhibitors in phosphate buffered saline with 0.05% TWEEN 20, pH 7.4 (PBST) were tested and the association and dissociation reactions were monitored.
# APP/PS1 Tg mice = assay: Brain Aβ and oligomeric Aβ levels by ELISA and western blot; format: in vivo, mouse
# Description: The effect of CPO_Aβ17-21 P on Aβ deposition was tested in APP/PS1 Tg mice with plaque pathology. This AD mouse model develops plaque pathology from the age of 3 months. Animals were divided into two groups and received intraperitoneally (i.p.) injections of 0.2 mg of CPO_ Aβ17–21 P per mouse in sterile saline (n = 11, 5 male, 6 female) or saline alone (n = 10, 5 male, 5 female) as a control twice weekly for 4 months, beginning at age 3 months. During the treatment, veterinary staff monitored animals for any signs of toxicity, such as changes in body weight, physical appearance, and altered behavior. Animals were sacrificed a week after administration of the last treatment dose and behavioral testing. All mouse care and experimental procedures were compliant with guidelines of animal experimentation and were approved by the Institutional Animal Care and Use Committee at the New York University School of Medicine.
# Brains were weighed and homogenized (10% w/v) in tissue homogenization buffer (20 mM Tris base, pH 7.4, 250 mM sucrose, 1 mM EDTA, 1 mM EGTA) with […] phenylmethylsulphonyl fluoride, complete protease inhibitor cocktail and PhosSTOP phosphatase inhibitor cocktail (Roche, Indianapolis, IN, USA) added immediately before homogenization. The extraction of soluble Aβ and total Aβ was according to the method we have published previously, [44]. Brain homogenates were mixed with an equal volume of cold 0.4% diethylamine (DEA)/100 mM NaCl, and subsequently centrifuged at 100,000 × g for 1 hr at 4 °C. The supernatant was neutralized with 1/10 volume of 0.5 M Tris, pH 6.8, flash-frozen on dry ice and stored at −80 °C until used for ELISA analysis as soluble Aβ fraction. […] Soluble and total Aβ levels in the brain were measured by sandwich ELISA which used 6E10 monoclonal antibody as a capture antibody and two detection polyclonal antibodies R162 and R165 specific for Aβ40 and Aβ42, respectively. […]
# Oligomeric Aβ (o-Aβ) levels were determined with the Biosensis Oligomeric Amyloid-Beta ELISA kit (Biosensis, Thebarton, South Australia) following the manufacturer’s instructions. In brief, the unknown concentrations of o-Aβ in samples were measured against a standard containing different concentrations of o-Aβ. […] The TMB reaction was stopped and the absorbance of each well was read at 450 nm. The standards provided a linear curve and the best-fit line determined by linear regression were used to calculate the concentration of Aβ oligomers in the samples
# Brain homogenates were centrifuged at 100,000 × g for 1 hr at 4 °C. The supernatants were collected and the total protein concentrations were determined by the bicinchoninic acid assay (BCA; Pierce, Rockford, IL). […]
compound,measurement,setting,value
CC(C)CN1CC(=O)N2CCCC2C(=O)N(Cc2ccccc2)CC(=O)N(Cc2ccccc2)CC(=O)N(C)CC(=O)N(CC(N)=O)CCC1=O (stereo not drawn) [CPO_Aβ17-21 P] ([Nleu][ξP][Nphe][Nphe][Sar][N(CH2CH2CO)Gly]-NH2; lactam N-6),neutralization of apoE4-enhanced cytotoxicity of Aβ42,[1],neutralized
same,inhibition of apoE4/Aβ42 binding,"apoE4/Aβ42 binding; SPR, 2:1 molar ratio (peptoid:apoE4)",50%
same,inhibition of apoE4/Aβ42 binding,"apoE4/Aβ42 binding; SPR, 8:1 molar ratio (peptoid:apoE4)",near complete inhibition
same,inhibition of apoE4/Aβ42 binding (library screen),"apoE4/Aβ42 binding; SPR, immobilised Aβ42, recombinant human apoE4 pre-incubated with peptoid, PBST pH 7.4",inhibited apoE4/Aβ42 binding
same,IC50,"apoE4/Aβ42 binding; one-site competition nonlinear regression, Fig. 1d legend: lipidated apoE/Aβ binding, read-out: half-maximal inhibition (IC50) of apoE/Aβ binding",1.02 nM
same,Aβ42 in the insoluble (formic acid) brain fraction,"APP/PS1 Tg mice; ELISA, p < 0.0001 versus vehicle",Reduction
same,Aβ40 in the insoluble (formic acid) brain fraction,"APP/PS1 Tg mice; ELISA, p < 0.001 versus vehicle",Reduction
same,Aβ oligomeric species by western blot,"APP/PS1 Tg mice; anti-amyloid antibody 4G8, brain homogenates, p < 0.05 versus vehicle",Reduction
same,Aβ oligomeric species by ELISA,"APP/PS1 Tg mice; brain homogenates, p < 0.05 versus vehicle",Reduction
